The values below are quoted from earlier work in patent US9459187B2, “Blood collection device containing lysophospholipase inhibitor” (Becton, Dickinson and Company, priority 2011, dated 2016).

The target in data set [1] is acetylcholinesterase (AChE) (Homo sapiens, UniProt P22303). The conditions noted are these: read-out: Ki for AChE.
Chain of acetylcholinesterase (AChE) (P22303 32-614, species assumed): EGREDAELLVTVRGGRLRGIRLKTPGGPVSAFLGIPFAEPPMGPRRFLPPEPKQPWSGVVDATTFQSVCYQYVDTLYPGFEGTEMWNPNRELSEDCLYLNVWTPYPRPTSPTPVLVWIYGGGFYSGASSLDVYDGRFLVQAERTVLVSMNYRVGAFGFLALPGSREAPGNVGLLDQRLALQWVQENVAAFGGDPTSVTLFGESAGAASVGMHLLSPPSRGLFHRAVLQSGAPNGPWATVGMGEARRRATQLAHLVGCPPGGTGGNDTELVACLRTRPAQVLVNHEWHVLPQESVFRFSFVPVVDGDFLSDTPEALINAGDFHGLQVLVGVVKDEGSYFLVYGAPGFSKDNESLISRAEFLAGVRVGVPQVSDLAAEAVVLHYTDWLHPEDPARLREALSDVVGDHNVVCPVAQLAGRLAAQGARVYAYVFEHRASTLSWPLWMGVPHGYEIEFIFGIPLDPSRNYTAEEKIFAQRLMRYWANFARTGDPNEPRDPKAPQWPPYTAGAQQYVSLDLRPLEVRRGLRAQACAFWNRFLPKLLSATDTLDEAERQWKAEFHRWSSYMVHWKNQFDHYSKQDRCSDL

`CCC1=CC2Cc3nc4cc(Cl)ccc4c(N)c3[C@H](C1)C2` [Huprine X, (1S)-7-chloro-15-ethyl-10-azatetracyclo[11.3.1.0^{2,11}.0^{4,9}]heptadeca-2(11),3,5,7,9,14-hexaen-3-amine]: in data set [1], the inhibitory constant (Ki) is 0.026 nM. For the molecule GIP(1-42), the half-life in circulation result was “about 5 minutes”. Turning to “ghrelin: 28-amino acid peptide having the sequence NH2-GSSFLSPEHQRVQQRKESKKPPAKLQPR-COOH (H-GSSFLSPEHQRVQQRKESKKPPAKLQPR-OH; ends and bridges not checked)”, the half-life in circulation result is given as “about 30 minutes”. As to “glucagon: 29-amino acid peptide involved in carbohydrate metabolism”, the half-life in circulation was 8 to 18 min.

As a reminder, the Ki is the equilibrium dissociation constant of an inhibitor or competing ligand from its target.
